Key:
[1] = excess molar enthalpy (molar enthalpy of mixing); xn = mol fraction of the nth substance listed; conditions: 101 kPa, Liquid
[2] = xn = mol fraction of the nth substance listed; conditions: 101 kPa, Liquid

C=C1CCC2CC1C2(C)C (stereo not drawn) [β-pinene] + CC(C)CO
Conditions	excess molar enthalpy, [1] [kcal/mol]	mass density, [2] [kg/m3]	speed of sound, [2] [m/s]
283.15 K, x1 = 0.0529	0.0158	–	–
283.15 K, x1 = 0.0566	–	815.77	1248.3
283.15 K, x1 = 0.1066	–	820.99	1257.1
283.15 K, x1 = 0.109	0.0306	–	–
283.15 K, x1 = 0.2011	–	829.88	1270.2
283.15 K, x1 = 0.2159	0.0605	–	–
283.15 K, x1 = 0.2931	–	837.56	1281.1
283.15 K, x1 = 0.3175	0.0851	–	–
283.15 K, x1 = 0.395	–	845.26	1292.2
283.15 K, x1 = 0.4299	0.108	–	–
283.15 K, x1 = 0.4928	–	851.82	1302
283.15 K, x1 = 0.5331	0.124	–	–
283.15 K, x1 = 0.6112	–	859.03	1313.9
283.15 K, x1 = 0.6229	0.13	–	–
283.15 K, x1 = 0.6906	–	863.45	1321.1
283.15 K, x1 = 0.7198	0.127	–	–
283.15 K, x1 = 0.7939	–	868.88	1330.7
283.15 K, x1 = 0.8249	0.111	–	–
283.15 K, x1 = 0.8682	–	872.61	1337.7
283.15 K, x1 = 0.9096	0.0841	–	–
283.15 K, x1 = 0.9393	–	876.05	1346.2
283.15 K, x1 = 0.9686	0.0672	–	–
298.15 K, x1 = 0.0481	–	803.39	1195.7
298.15 K, x1 = 0.0529	0.0217	–	–
298.15 K, x1 = 0.109	0.044	–	–
298.15 K, x1 = 0.1107	–	809.85	1203.9
298.15 K, x1 = 0.201	–	818.16	1214.9
298.15 K, x1 = 0.2159	0.0841	–	–
298.15 K, x1 = 0.2969	–	826.03	1225.1
298.15 K, x1 = 0.3175	0.115	–	–
298.15 K, x1 = 0.4002	–	833.57	1235.2
298.15 K, x1 = 0.4299	0.141	–	–
298.15 K, x1 = 0.4896	–	839.51	1243.9
298.15 K, x1 = 0.5331	0.156	–	–
298.15 K, x1 = 0.5856	–	845.33	1252.2
298.15 K, x1 = 0.6229	0.161	–	–
298.15 K, x1 = 0.6785	–	850.56	1260.4
298.15 K, x1 = 0.7198	0.152	–	–
298.15 K, x1 = 0.7841	–	856.21	1270.1
298.15 K, x1 = 0.8249	0.131	–	–
298.15 K, x1 = 0.8875	–	861.41	1280.4
298.15 K, x1 = 0.9096	0.101	–	–
298.15 K, x1 = 0.933	–	863.62	1285.2
298.15 K, x1 = 0.9686	0.086	–	–
303.15 K, x1 = 0.0505	–	799.78	1181.7
303.15 K, x1 = 0.0529	0.0275	–	–
303.15 K, x1 = 0.1044	–	805.23	1188.4
303.15 K, x1 = 0.109	0.0566	–	–
303.15 K, x1 = 0.2023	–	814.23	1200.2
303.15 K, x1 = 0.2159	0.116	–	–
303.15 K, x1 = 0.2999	–	822.12	1210.6
303.15 K, x1 = 0.3175	0.154	–	–
303.15 K, x1 = 0.3929	–	828.94	1219.2
303.15 K, x1 = 0.4299	0.185	–	–
303.15 K, x1 = 0.4877	–	835.22	1227.7
303.15 K, x1 = 0.5331	0.2	–	–
303.15 K, x1 = 0.6108	–	842.66	1238.3
303.15 K, x1 = 0.6229	0.204	–	–
303.15 K, x1 = 0.6829	–	846.72	1244.6
303.15 K, x1 = 0.7198	0.191	–	–
303.15 K, x1 = 0.7908	–	852.45	1254.4
303.15 K, x1 = 0.8249	0.162	–	–
303.15 K, x1 = 0.8846	–	857.17	1263.9
303.15 K, x1 = 0.9096	0.124	–	–
303.15 K, x1 = 0.9299	–	859.39	1268.9
303.15 K, x1 = 0.9686	0.103	–	–
313.15 K, x1 = 0.0401	–	790.45	1143.3
313.15 K, x1 = 0.0529	0.0356	–	–
313.15 K, x1 = 0.1042	–	796.91	1150.9
313.15 K, x1 = 0.109	0.0743	–	–
313.15 K, x1 = 0.2004	–	805.6	1160.9
313.15 K, x1 = 0.2159	0.141	–	–
313.15 K, x1 = 0.3012	–	813.68	1170.6
313.15 K, x1 = 0.3175	0.187	–	–
313.15 K, x1 = 0.3902	–	820.11	1178.2
313.15 K, x1 = 0.4299	0.221	–	–
313.15 K, x1 = 0.51	–	827.98	1187.7
313.15 K, x1 = 0.5331	0.239	–	–
313.15 K, x1 = 0.6202	–	834.55	1196.8
313.15 K, x1 = 0.6229	0.242	–	–
313.15 K, x1 = 0.6847	–	838.19	1202.2
313.15 K, x1 = 0.7198	0.225	–	–
313.15 K, x1 = 0.7768	–	843.06	1210.2
313.15 K, x1 = 0.8249	0.192	–	–
313.15 K, x1 = 0.8969	–	849.21	1222.1
313.15 K, x1 = 0.9096	0.147	–	–
313.15 K, x1 = 0.9601	–	852.46	1230.5
313.15 K, x1 = 0.9686	0.123	–	–
323.15 K, x1 = 0.0529	0.044	–	–
323.15 K, x1 = 0.0547	–	783.66	1114.2
323.15 K, x1 = 0.1021	–	788.33	1119.3
323.15 K, x1 = 0.109	0.0839	–	–
323.15 K, x1 = 0.207	–	797.66	1129.4
323.15 K, x1 = 0.2159	0.163	–	–
323.15 K, x1 = 0.2989	–	804.85	1136.8
323.15 K, x1 = 0.3175	0.215	–	–
323.15 K, x1 = 0.4024	–	812.32	1144.6
323.15 K, x1 = 0.4299	0.248	–	–
323.15 K, x1 = 0.5041	–	818.98	1152.7
323.15 K, x1 = 0.5331	0.273	–	–
323.15 K, x1 = 0.6074	–	825.2	1160.6
323.15 K, x1 = 0.6229	0.274	–	–
323.15 K, x1 = 0.6965	–	830.27	1167.7
323.15 K, x1 = 0.7198	0.255	–	–
323.15 K, x1 = 0.8063	–	836.02	1177.1
323.15 K, x1 = 0.8249	0.22	–	–
323.15 K, x1 = 0.8887	–	840.5	1184.7
323.15 K, x1 = 0.9096	0.169	–	–
323.15 K, x1 = 0.9618	–	844.41	1192.6
323.15 K, x1 = 0.9686	0.141	–	–

Source: the NIST ThermoML archive (doi:10.1021/je700193w)
